Results as given in patent publication US12485192B2, “Cellular targeted label delivery system” (CELLIS AG, priority 2016, dated 2025).

Legend:
metastatic 4T1 cancer = conditions: mouse, in vivo, iv
Text: After labeling, cells should be centrifuged and supernatant should be removed. This step should be repeated until no radioactivity is detected in the supernatant.

[1] = system: CD45+ leukocyte cells (macrophages, monocytes, lymphocytes, granulocytes); assay: Uptake of iron binding proteins by CD45+ leukocyte cells in culture; assay type: cell-based, mouse; conditions: incubation 1-4 hrs, 0.1-0.2 mg/ml protein solution, standard culture conditions; FIG. 5
Protocol: (§1) Obtained cells are incubated in ferritin solution for a time and at the concentration sufficient to ensure proper ratio of ferritin/cell for their full load and also to ensure proper contrast content to obtain proper imaging). The time and concentration may vary depending on the number of molecules encapsulated/adsorbed into the ferritin cage, status of cell activation, condition and number of their intended administration.
For example, to ensure proper load with ferritins, cells are incubated for 1-4 hrs in ferritin solution 0.2 mg/ml in standard culture conditions. The frame of ferritin concentration may vary at least between 0.01 and 4 mg/ml as well as incubation time (5 min-6 hrs or more). Adjusting time and concentration of ferritin load to cells, the influence of ferritin and treatment conditions on cell viability should be minded.
as §1, with “haemoglobin” for “ferritin”, “haemoglobin/cell” for “ferritin/cell”, “imaging.” for “imaging).”, “linked with” for “encapsulated/adsorbed into”, “haemoglobin molecule,” for “ferritin cage,”, “administration. […]” for “administration.”

Row | Substance | PET signal (metastatic 4T1 cancer) | uptake of iron binding protein by cells [1]
1 | 18F fluorodeoxyglucose [plain 18F-1-DG] | lower PET signal | –
2 | haemoglobins: human haemoglobin prepared from fresh red cells | – | very easily uptake
3 | transferrin: human holo-transferrin purified from serum of healthy donor | – | very easily uptake
